Results: patent US8796001B2, “Metalloenzyme inhibitor compounds” (Viamet Pharmaceuticals, Inc., priority 2011, dated 2014)

What was measured:
[1] = system: Puccinia recondita tritici = Puccinia triticina (PUCCRT); assay: Fungicidal activity vs. leaf rust on wheat plants; assay type: in vivo; conditions: wheat (Yuma) sprayed at 50 ppm, inoculated the following day, rated 7-9 days later, read-out: Puccinia Rating (% Disease Control @ 50 ppm)
Text: D. Evaluation of Fungicidal Activity vs. Leaf Rust (Causal Agent Puccinia Recondita Tritici=Puccinia Triticina; Bayer Code PUCCRT)
Each pot contained 3-8 seedlings. These plants were sprayed until wet with the formulated test compounds. The compounds were formulated at 50 ppm in 10 vol. % acetone plus 90 vol. % Triton X water (deionized water 99.99 wt %+0.01 wt % Triton X100), giving a “formulated test compound.” Formulated test compounds were applied to plants using a turn table sprayer fitted with two opposing air atomization nozzles which delivered approximately 1500 L/ha of spray volume. On the following day, the leaves were inoculated with an aqueous spore suspension of Puccinia recondita tritici and the plants were kept in high humidity overnight to permit spores to germinate and infect the leaf. The plants were then transferred to a greenhouse until disease developed on untreated control plants. Disease severity was evaluated 7-9 days later, depending on the speed of disease development.
In each case of Table 3, the Puccinia rating scale is as follows: […]

[2] = system: Septoria tritici (ATCC 26517); assay: Minimum Inhibitory Concentration (MIC) vs. Septoria tritici; assay type: cell-based; conditions: Zymoseptoria tritici, ATCC26517, 168 h; S. tritici ATCC 26517; 50% growth reduction; 7 days at 22 °C; read-out: Septoria Rating (MIC)
Method: C. Minimum Inhibitory Concentration (MIC) vs. Septoria Tritici Compounds were assessed for their ability to inhibit the growth of a common strain of the fungal plant pathogen Septoria tritici (ATCC 26517) using a procedure based on a Clinical and Laboratory Standards Institute (CLSI) microdilution assay protocol for filamentous fungi. Stock solutions of the test compounds and standards were prepared in DMSO at 6400 μg/mL. Each stock solution was used to prepare a 2-fold dilution series ranging from 16 to 0.016 μg/mL (total of 11 compound concentrations) in RPMI-1640 (Roswell Park Memorial Institute) medium containing 3-(N-morpholino)propanesulfonic acid (MOPS) buffer and 2% DMSO. A 100 μL aliquot of the dilutions was added to columns 1 (16 μg/mL compound) through 11 (0.016 μg/mL compound) of a 96-well microtiter plate. This format was replicated in a second row of the microtiter plate. Thus, each microtiter plate could include 11 concentrations of four test or control compounds replicated twice. A 100 μL aliquot of RPMI-1640/MOPS/2% DMSO medium was added to column 12 (no compound control) of the microtiter plate. A fresh culture of S. tritici was used to prepare a solution of approximately 5×10^4 colony-forming units per milliliter (cfu/mL) in RPMI/MOPS medium without DMSO. A 100 μL aliquot of this solution was added to all 96 wells in the microtiter plate. […]

SMILES	pest or weed control at 50 ppm [1]	MIC [2]
OC(Cn1cnnn1)(c1ccc(F)cc1F)C(F)(F)c1ccc(OCc2ccccc2)cn1 (centres unmarked) [Compound 30, 1-(5-(Benzyloxy)pyridin-2-yl)-2-(2,4-difluorophenyl)-1,1-difluoro-3-(1H-tetrazol-1-yl)propan-2-ol]	80 to 100%	≤ 0.5 µg/mL
CC#CCOc1ccc(C(F)(F)C(O)(Cn2cnnn2)c2ccc(F)cc2F)nc1 (centres unmarked) [Compound 32, 1-(5-(But-2-yn-1-yloxy)pyridin-2-yl)-2-(2,4-difluorophenyl)-1,1-difluoro-3-(1H-tetrazol-1-yl)propan-2-ol]	–	≤ 0.5 µg/mL
OC(Cn1cnnn1)(c1ccc(F)cc1F)C(F)(F)c1ccc(Oc2ncccn2)cn1 (centres unmarked) [Compound 97, 2-(2,4-difluorophenyl)-1,1-difluoro-1-(5-(pyrimidin-2-yloxy)pyridin-2-yl)-3-(1H-tetrazol-1-yl)propan-2-ol]	80 to 100%	–
OC(Cn1cnnn1)(c1ccc(F)cc1F)C(F)(F)c1ccc(Oc2ncc(Cl)cn2)cn1 (centres unmarked) [Compound 98, 1-(5-((5-chloropyrimidin-2-yl)oxy)pyridin-2-yl)-2-(2,4-difluorophenyl)-1,1-difluoro-3-(1H-tetrazol-1-yl)propan-2-ol]	80 to 100%	–
OC(Cn1cnnn1)(c1ccc(F)cc1F)C(F)(F)c1ccc(Oc2ncc(Br)cn2)cn1 (centres unmarked) [Compound 99, 1-(5-((5-bromopyrimidin-2-yl)oxy)pyridin-2-yl)-2-(2,4-difluorophenyl)-1,1-difluoro-3-(1H-tetrazol-1-yl)propan-2-ol]	80 to 100%	–
N#Cc1ncc(Oc2ccc(C(F)(F)C(O)(Cn3cnnn3)c3ccc(F)cc3F)nc2)cn1 (centres unmarked) [Compound 100, 5-((6-(2-(2,4-difluorophenyl)-1,1-difluoro-2-hydroxy-3-(1H-tetrazol-1-yl)propyl)pyridin-3-yl)oxy)pyrimidine-2-carbonitrile]	60 to 79%	–
O=Cc1ccc(Oc2ccc(C(F)(F)C(O)(Cn3cnnn3)c3ccc(F)cc3F)nc2)nc1 (centres unmarked) [Compound 101, 6-((6-(2-(2,4-difluorophenyl)-1,1-difluoro-2-hydroxy-3-(1H-tetrazol-1-yl)propyl)pyridin-3-yl)oxy)nicotinaldehyde]	< 40%	–
CO/N=C/c1ccc(Oc2ccc(C(F)(F)C(O)(Cn3cnnn3)c3ccc(F)cc3F)nc2)nc1 (centres unmarked) [Compound 102, (E)-6-((6-(2-(2,4-difluorophenyl)-1,1-difluoro-2-hydroxy-3-(1H-tetrazol-1-yl)propyl)pyridin-3-yl)oxy)nicotinaldehyde O-methyl oxime]	80 to 100%	–
OC(Cn1cnnn1)(c1ccc(F)cc1F)C(F)(F)c1ccc(Oc2ccc(/C=N/OCc3ccccc3)cn2)cn1 (centres unmarked) [Compound 103, (E)-6-((6-(2-(2,4-difluorophenyl)-1,1-difluoro-2-hydroxy-3-(1H-tetrazol-1-yl)propyl)pyridin-3-yl)oxy)nicotinaldehyde O-benzyl oxime]	60 to 79%	–
OC(Cn1cnnn1)(c1ccc(F)cc1F)C(F)(F)c1ccc(Oc2ncc(C(F)(F)F)cc2F)cn1 (centres unmarked) [Compound 104, 2-(2,4-difluorophenyl)-1,1-difluoro-1-(5-((3-fluoro-5-(trifluoromethyl)pyridin-2-yl)oxy)pyridin-2-yl)-3-(1H-tetrazol-1-yl)propan-2-ol]	80 to 100%	–
OC(Cn1cnnn1)(c1ccc(F)cc1F)C(F)(F)c1ccc(Oc2ncc(C(F)(F)F)cn2)cn1 (centres unmarked) [Compound 105, 2-(2,4-difluorophenyl)-1,1-difluoro-3-(1H-tetrazol-1-yl)-1-(5-((5-(trifluoromethyl)pyrimidin-2-yl)oxy)pyridin-2-yl)propan-2-ol]	80 to 100%	–
OC(Cn1cnnn1)(c1ccc(F)cc1F)C(F)(F)c1ccc(Oc2ccc(Br)cn2)cn1 (centres unmarked) [Compound 106, 1-(5-((5-bromopyridin-2-yl)oxy)pyridin-2-yl)-2-(2,4-difluorophenyl)-1,1-difluoro-3-(1H-tetrazol-1-yl)propan-2-ol]	80 to 100%	–
N#Cc1cnc(Oc2ccc(C(F)(F)C(O)(Cn3cnnn3)c3ccc(F)cc3F)nc2)s1 (centres unmarked) [Compound 107, 2-((6-(2-(2,4-difluorophenyl)-1,1-difluoro-2-hydroxy-3-(1H-tetrazol-1-yl)propyl)pyridin-3-yl)oxy)thiazole-5-carbonitrile]	< 40%	–
OC(Cn1cnnn1)(c1ccc(F)cc1F)C(F)(F)c1ccc(OCc2ccc(Cl)cn2)cn1 (centres unmarked) [Compound 113, 1-(5-((5-chloropyridin-2-yl)methoxy)pyridin-2-yl)-2-(2,4-difluorophenyl)-1,1-difluoro-3-(1H-tetrazol-1-yl)propan-2-ol]	80 to 100%	–
OC(Cn1cnnn1)(c1ccc(F)cc1F)C(F)(F)c1ccc(OCc2ccc(C(F)(F)F)cn2)cn1 (centres unmarked) [Compound 114, 2-(2,4-difluorophenyl)-1,1-difluoro-3-(1H-tetrazol-1-yl)-1-(5-((5-(trifluoromethyl)pyridin-2-yl)methoxy)pyridin-2-yl)propan-2-ol]	80 to 100%	–
OC(Cn1cnnn1)(c1ccc(F)cc1F)C(F)(F)c1ccc(OCc2ccc(C(F)(F)F)nc2)cn1 (centres unmarked) [Compound 115, 2-(2,4-difluorophenyl)-1,1-difluoro-3-(1H-tetrazol-1-yl)-1-(5-((6-(trifluoromethyl)pyridin-3-yl)methoxy)pyridin-2-yl)propan-2-ol]	80 to 100%	–
OC(Cn1cnnn1)(c1ccc(F)cc1F)C(F)(F)c1ccc(OCc2ccc(Cl)nc2)cn1 (centres unmarked) [Compound 116, 1-(5-((6-chloropyridin-3-yl)methoxy)pyridin-2-yl)-2-(2,4-difluorophenyl)-1,1-difluoro-3-(1H-tetrazol-1-yl)propan-2-ol]	80 to 100%	–
OC(Cn1cnnn1)(c1ccc(F)cc1F)C(F)(F)c1ccc(OCc2ccnc(Cl)c2)cn1 (centres unmarked) [Compound 117, 1-(5-((2-chloropyridin-4-yl)methoxy)pyridin-2-yl)-2-(2,4-difluorophenyl)-1,1-difluoro-3-(1H-tetrazol-1-yl)propan-2-ol]	80 to 100%	–
OC(Cn1cnnn1)(c1ccc(F)cc1F)C(F)(F)c1ccc(OCc2ccncc2)cn1 (centres unmarked) [Compound 118, 2-(2,4-difluorophenyl)-1,1-difluoro-1-(5-(pyridin-4-ylmethoxy)pyridin-2-yl)-3-(1H-tetrazol-1-yl)propan-2-ol]	< 40%	–
OC(Cn1cnnn1)(c1ccc(F)cc1F)C(F)(F)c1ccc(OCC(F)(F)c2ccccc2)cn1 (centres unmarked) [Compound 119, 1-(5-(2,2-difluoro-2-phenylethoxy)pyridin-2-yl)-2-(2,4-difluorophenyl)-1,1-difluoro-3-(1H-tetrazol-1-yl)propan-2-ol]	80 to 100%	–
OC(Cn1cnnn1)(c1ccc(F)cc1F)C(F)(F)c1ccc(OCC(F)(F)c2ccc(OC(F)F)cc2)cn1 (centres unmarked) [Compound 120, 1-(5-(2-(4-(difluoromethoxy)phenyl)-2,2-difluoroethoxy)pyridin-2-yl)-2-(2,4-difluorophenyl)-1,1-difluoro-3-(1H-tetrazol-1-yl)propan-2-ol]	80 to 100%	–
N#Cc1ccc(C(F)(F)COc2ccc(C(F)(F)C(O)(Cn3cnnn3)c3ccc(F)cc3F)nc2)cc1 (centres unmarked) [Compound 121, 4-(2-((6-(2-(2,4-difluorophenyl)-1,1-difluoro-2-hydroxy-3-(1H-tetrazol-1-yl)propyl)pyridin-3-yl)oxy)-1,1-difluoroethyl)benzonitrile]	80 to 100%	–
OC(Cn1cnnn1)(c1ccc(F)cc1F)C(F)(F)c1ccc(OCC(F)(F)c2ccc(Cl)cc2)cn1 (centres unmarked) [Compound 122, 1-(5-(2-(4-chlorophenyl)-2,2-difluoroethoxy)pyridin-2-yl)-2-(2,4-difluorophenyl)-1,1-difluoro-3-(1H-tetrazol-1-yl)propan-2-ol]	80 to 100%	–
OC(Cn1cnnn1)(c1ccc(F)cc1F)C(F)(F)c1ccc(OCC(F)c2ccccc2)cn1 (centres unmarked) [Compound 123, 2-(2,4-difluorophenyl)-1,1-difluoro-1-(5-(2-fluoro-2-phenylethoxy)pyridin-2-yl)-3-(1H-tetrazol-1-yl)propan-2-ol]	80 to 100%	–
OC(Cn1cnnn1)(c1ccc(F)cc1F)C(F)(F)c1ccc(OCC(F)c2ccc(OC(F)F)cc2)cn1 (centres unmarked) [Compound 124, 1-(5-(2-(4-(difluoromethoxy)phenyl)-2-fluoroethoxy)pyridin-2-yl)-2-(2,4-difluorophenyl)-1,1-difluoro-3-(1H-tetrazol-1-yl)propan-2-ol]	80 to 100%	–
